Calls of active or inactive are those of the source. No cut-off for these calls is given here.
Columns and labels:
[1] = system: Mus musculus; assay: Antihyperglycemic activity in hyperglycemic KK/Ta mouse assessed as change in plasma glucose level administered with diet in ratio of 0.1% for 1 week relative to control; assay type: functional
[2] = system: Mus musculus; assay: Antihyperglycemic activity in hyperglycemic KK/Ta mouse assessed as effect on body weight administered with diet in ratio of 0.1% for 1 week measured on day 7 relative to control; assay type: ADME, organism-based; details: in vivo, po, 168 h
[3] = system: Mus musculus; assay: Antihyperglycemic activity in hyperglycemic KK/Ta mouse assessed as effect on food intake administered with diet in ratio of 0.1% for 1 week measured on day 7 relative to control; assay type: ADME, organism-based; details: in vivo, po, 168 h
[4] = molecular target: T1, Protein kinase C alpha type (Homo sapiens, UniProt P17252); assay: Inhibition of PKCalpha at 1 uM
[5] = molecular target: T2, Protein kinase C beta type (Homo sapiens, UniProt P05771); assay: Inhibition of PKCbeta1 at 1 uM
Target sequence in this assay (P05771 2-671 limits assumed): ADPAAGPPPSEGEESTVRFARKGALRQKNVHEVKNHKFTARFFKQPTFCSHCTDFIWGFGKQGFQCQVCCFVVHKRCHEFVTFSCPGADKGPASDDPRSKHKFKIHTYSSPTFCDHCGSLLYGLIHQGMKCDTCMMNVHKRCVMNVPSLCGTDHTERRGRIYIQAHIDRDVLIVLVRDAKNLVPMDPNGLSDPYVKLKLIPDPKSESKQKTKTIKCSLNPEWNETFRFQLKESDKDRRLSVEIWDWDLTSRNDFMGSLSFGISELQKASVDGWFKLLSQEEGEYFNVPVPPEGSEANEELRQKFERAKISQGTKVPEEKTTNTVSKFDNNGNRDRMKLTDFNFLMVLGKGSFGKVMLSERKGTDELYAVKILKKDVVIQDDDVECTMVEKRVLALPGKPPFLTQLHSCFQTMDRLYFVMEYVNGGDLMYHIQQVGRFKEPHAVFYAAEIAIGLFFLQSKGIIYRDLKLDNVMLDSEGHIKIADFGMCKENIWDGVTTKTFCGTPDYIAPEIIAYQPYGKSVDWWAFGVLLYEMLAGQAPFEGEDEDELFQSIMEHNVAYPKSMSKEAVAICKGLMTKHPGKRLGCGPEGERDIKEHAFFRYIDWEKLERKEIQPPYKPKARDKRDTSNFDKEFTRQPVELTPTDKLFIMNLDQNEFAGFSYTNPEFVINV

[6] = molecular target: Protein kinase C delta type (Homo sapiens) (UniProt Q05655); assay: Inhibition of PKCdelta at 1 uM
[7] = molecular target: T3, Protein kinase C epsilon type (Homo sapiens) (UniProt Q02156); assay: Inhibition of PKCepsilon at 1 uM
T3 sequence (whole entry): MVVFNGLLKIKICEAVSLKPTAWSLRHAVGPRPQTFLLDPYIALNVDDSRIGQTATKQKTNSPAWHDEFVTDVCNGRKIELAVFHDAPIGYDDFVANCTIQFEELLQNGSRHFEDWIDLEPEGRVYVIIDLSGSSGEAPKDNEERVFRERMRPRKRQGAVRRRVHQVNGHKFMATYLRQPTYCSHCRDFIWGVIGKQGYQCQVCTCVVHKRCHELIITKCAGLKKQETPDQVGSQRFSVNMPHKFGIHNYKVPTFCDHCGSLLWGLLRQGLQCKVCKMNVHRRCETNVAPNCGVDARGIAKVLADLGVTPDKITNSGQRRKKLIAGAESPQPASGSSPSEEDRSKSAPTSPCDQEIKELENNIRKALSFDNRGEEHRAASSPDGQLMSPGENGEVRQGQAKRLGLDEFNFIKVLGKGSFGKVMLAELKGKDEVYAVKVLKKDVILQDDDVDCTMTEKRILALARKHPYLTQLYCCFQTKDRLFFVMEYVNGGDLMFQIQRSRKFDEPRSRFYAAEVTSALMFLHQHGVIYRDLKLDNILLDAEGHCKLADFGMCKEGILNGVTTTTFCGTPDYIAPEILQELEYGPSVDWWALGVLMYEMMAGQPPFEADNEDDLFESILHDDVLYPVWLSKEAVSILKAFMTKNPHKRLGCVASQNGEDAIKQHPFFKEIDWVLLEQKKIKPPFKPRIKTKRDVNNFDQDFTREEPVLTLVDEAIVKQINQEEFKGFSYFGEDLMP

[8] = molecular target: Protein kinase C eta type (Homo sapiens) (UniProt P24723); assay: Inhibition of PKCeta at 1 uM
[9] = molecular target: T4, Protein kinase C zeta type (Homo sapiens) (UniProt Q05513); assay: Inhibition of PKCzeta at 1 uM
T4 sequence (whole entry): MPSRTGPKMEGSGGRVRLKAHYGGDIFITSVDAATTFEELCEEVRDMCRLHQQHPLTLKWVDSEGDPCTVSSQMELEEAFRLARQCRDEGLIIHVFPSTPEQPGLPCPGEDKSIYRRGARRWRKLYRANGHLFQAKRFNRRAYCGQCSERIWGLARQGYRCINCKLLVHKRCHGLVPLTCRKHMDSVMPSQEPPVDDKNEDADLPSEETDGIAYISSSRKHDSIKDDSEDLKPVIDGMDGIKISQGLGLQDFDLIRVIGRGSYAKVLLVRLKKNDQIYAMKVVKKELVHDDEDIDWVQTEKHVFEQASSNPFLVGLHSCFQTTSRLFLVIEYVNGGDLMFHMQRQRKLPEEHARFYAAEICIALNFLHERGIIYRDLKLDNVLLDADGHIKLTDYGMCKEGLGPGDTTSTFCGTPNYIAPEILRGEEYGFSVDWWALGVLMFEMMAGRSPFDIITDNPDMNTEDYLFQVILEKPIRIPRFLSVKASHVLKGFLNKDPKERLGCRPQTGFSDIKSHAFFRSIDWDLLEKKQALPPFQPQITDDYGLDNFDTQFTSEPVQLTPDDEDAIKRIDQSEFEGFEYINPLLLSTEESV

[10] = system: Mus musculus; assay: Antihyperglycemic activity in hyperglycemic KK/Ta mouse assessed as effect on body weight administered with diet in ratio of 0.03% for 1 week measured on day 7 relative to control; assay type: ADME, organism-based; details: in vivo, po, 168 h
[11] = system: Mus musculus; assay: Antihyperglycemic activity in hyperglycemic KK/Ta mouse assessed as effect on food intake administered with diet in ratio of 0.03% for 1 week measured on day 7 relative to control; assay type: ADME, organism-based; details: in vivo, po, 168 h
[12] = system: Mus musculus; assay: Antihyperglycemic activity in hyperglycemic KK/Ta mouse assessed as change in plasma glucose level administered with diet in ratio of 0.03% administered for 1 week relative to control; assay type: functional
[13] = molecular target: T2, Protein kinase C beta type; assay: Inhibition of PKCbeta2 at 1 uM
Target sequence in this assay (P05771 2-671 limits assumed): as the sequence (P05771 2-671 limits assumed) above

[14] = molecular target: T5, Protein kinase C-like 1 (Candida albicans, UniProt P43057); assay: Inhibition of Candida albicans Pkc1 expressed in insect Sf9 cells by scintillation proximity assay
T5 sequence (P43057 whole entry): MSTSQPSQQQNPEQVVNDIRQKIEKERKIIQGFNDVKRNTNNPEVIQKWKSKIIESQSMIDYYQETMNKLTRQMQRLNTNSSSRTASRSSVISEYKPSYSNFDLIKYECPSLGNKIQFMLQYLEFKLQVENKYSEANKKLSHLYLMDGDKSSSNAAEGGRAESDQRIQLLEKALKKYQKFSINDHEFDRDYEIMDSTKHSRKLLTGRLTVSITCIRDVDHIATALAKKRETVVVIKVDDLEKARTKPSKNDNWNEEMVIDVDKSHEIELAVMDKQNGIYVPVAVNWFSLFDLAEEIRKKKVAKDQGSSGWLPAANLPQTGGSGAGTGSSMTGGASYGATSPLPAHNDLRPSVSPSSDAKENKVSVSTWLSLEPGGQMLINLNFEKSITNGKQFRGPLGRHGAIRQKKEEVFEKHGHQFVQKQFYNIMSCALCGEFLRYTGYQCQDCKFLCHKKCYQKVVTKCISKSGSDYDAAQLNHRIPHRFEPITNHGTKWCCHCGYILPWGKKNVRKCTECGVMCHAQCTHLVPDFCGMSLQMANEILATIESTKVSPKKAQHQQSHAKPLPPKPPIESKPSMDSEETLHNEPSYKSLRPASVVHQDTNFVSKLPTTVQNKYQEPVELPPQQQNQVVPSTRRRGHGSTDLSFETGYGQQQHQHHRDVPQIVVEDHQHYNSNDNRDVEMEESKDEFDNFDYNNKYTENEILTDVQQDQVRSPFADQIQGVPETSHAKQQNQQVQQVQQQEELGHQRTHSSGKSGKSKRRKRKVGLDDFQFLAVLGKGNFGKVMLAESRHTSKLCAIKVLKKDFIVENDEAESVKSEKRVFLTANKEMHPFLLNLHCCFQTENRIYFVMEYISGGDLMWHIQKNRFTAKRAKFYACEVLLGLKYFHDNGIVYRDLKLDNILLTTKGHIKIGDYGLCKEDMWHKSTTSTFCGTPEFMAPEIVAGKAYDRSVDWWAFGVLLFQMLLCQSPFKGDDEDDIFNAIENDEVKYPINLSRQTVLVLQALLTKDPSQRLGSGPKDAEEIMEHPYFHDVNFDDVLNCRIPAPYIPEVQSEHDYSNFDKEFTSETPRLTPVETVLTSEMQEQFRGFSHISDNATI

[15] = molecular target: T2, Protein kinase C beta type; assay: Inhibition of human PKCbeta by scintillation proximity assay
Target sequence in this assay (P05771 whole entry): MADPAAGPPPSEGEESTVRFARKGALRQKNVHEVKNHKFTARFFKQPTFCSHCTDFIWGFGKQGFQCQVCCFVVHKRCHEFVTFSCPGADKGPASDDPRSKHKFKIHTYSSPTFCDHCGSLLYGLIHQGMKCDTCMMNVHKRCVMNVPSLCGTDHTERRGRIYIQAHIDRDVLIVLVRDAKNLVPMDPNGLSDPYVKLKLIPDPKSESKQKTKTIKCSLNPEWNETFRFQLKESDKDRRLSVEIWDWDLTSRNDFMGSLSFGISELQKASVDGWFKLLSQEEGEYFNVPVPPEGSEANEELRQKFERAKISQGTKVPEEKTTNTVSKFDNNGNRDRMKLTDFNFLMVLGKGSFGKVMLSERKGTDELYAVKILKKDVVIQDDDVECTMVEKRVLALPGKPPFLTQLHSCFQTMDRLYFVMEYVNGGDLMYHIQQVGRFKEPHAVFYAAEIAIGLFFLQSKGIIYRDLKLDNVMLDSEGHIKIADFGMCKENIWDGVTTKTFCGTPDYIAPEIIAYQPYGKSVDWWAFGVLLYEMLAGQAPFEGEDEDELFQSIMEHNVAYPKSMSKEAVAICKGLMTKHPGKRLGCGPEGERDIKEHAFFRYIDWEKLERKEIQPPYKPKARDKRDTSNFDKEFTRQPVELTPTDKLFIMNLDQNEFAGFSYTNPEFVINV

[16] = molecular target: Protein kinase C gamma type (Homo sapiens, UniProt P05129); assay: Inhibition of human PKCgamma by scintillation proximity assay
[17] = molecular target: T1, Protein kinase C alpha type; assay: Inhibition of human PKCalpha by scintillation proximity assay
[18] = system: Mus musculus; assay: Antihyperglycemic activity in hyperglycemic KK/Ta mouse assessed as plasma glucose level administered with diet in ratio of 0.003% for 1 week; assay type: functional
[19] = system: Mus musculus; assay: Antihyperglycemic activity in hyperglycemic KK/Ta mouse assessed as body weight administered with diet in ratio of 0.003% for 1 week measured on day 7; assay type: ADME, organism-based; details: in vivo, po, 168 h
[20] = system: Mus musculus; assay: Antihyperglycemic activity in hyperglycemic KK/Ta mouse assessed as food intake administered with diet in ratio of 0.003% for 1 week measured on day 7; assay type: ADME, organism-based; details: in vivo, po, 168 h
[21] = system: Mus musculus; assay: Antihyperglycemic activity in hyperglycemic KK/Ta mouse assessed as plasma glucose level administered with diet in ratio of 0.01% for 1 week; assay type: functional
[22] = system: Mus musculus; assay: Antihyperglycemic activity in hyperglycemic KK/Ta mouse assessed as body weight administered with diet in ratio of 0.01% for 1 week measured on day 7; assay type: ADME, organism-based; details: in vivo, po, 168 h
[23] = system: Mus musculus; assay: Antihyperglycemic activity in hyperglycemic KK/Ta mouse assessed as food intake administered with diet in ratio of 0.01% for 1 week measured on day 7; assay type: ADME, organism-based; details: in vivo, po, 168 h
[24] = system: Mus musculus; assay: Antihyperglycemic activity in hyperglycemic KK/Ta mouse assessed as plasma glucose level administered with diet in ratio of 0.03% for 1 week; assay type: functional
[25] = system: Mus musculus; assay: Antihyperglycemic activity in hyperglycemic KK/Ta mouse assessed as body weight administered with diet in ratio of 0.03% for 1 week measured on day 7; assay type: ADME, organism-based; details: in vivo, po, 168 h
[26] = system: Mus musculus; assay: Antihyperglycemic activity in hyperglycemic KK/Ta mouse assessed as food intake administered with diet in ratio of 0.03% for 1 week measured on day 7; assay type: ADME, organism-based; details: in vivo, po, 168 h
[27] = system: Mus musculus; assay: Antihyperglycemic activity in hyperglycemic KK/Ta mouse assessed as plasma glucose level administered with diet in ratio of 0.1% for 1 week; assay type: functional
[28] = system: Mus musculus; assay: Antihyperglycemic activity in hyperglycemic KK/Ta mouse assessed as body weight administered with diet in ratio of 0.1% for 1 week measured on day 7; assay type: ADME, organism-based; details: in vivo, po, 168 h
[29] = system: Mus musculus; assay: Antihyperglycemic activity in hyperglycemic KK/Ta mouse assessed as food intake administered with diet in ratio of 0.1% for 1 week measured on day 7; assay type: ADME, organism-based; details: in vivo, po, 168 h

Sequence of Protein kinase C delta type (Homo sapiens) (Q05655 whole entry, looked up): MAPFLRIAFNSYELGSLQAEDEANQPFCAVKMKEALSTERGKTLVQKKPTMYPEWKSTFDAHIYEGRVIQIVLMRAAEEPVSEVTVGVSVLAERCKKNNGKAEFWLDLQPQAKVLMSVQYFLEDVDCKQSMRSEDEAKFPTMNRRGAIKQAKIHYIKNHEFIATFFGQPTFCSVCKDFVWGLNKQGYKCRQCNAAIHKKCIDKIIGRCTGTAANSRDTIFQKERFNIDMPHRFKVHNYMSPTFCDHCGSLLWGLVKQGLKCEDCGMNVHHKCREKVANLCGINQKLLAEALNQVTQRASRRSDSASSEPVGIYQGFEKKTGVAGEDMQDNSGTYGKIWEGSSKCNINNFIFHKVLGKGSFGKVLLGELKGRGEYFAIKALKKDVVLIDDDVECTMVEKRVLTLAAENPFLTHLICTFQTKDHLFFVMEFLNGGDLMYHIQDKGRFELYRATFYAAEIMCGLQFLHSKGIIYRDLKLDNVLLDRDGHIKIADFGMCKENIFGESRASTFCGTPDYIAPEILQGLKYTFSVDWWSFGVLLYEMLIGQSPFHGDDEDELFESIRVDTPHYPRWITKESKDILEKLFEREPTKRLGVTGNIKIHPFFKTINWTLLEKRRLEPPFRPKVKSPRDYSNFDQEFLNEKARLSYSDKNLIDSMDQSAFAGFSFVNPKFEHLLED
Sequence of Protein kinase C eta type (Homo sapiens) (P24723 whole entry): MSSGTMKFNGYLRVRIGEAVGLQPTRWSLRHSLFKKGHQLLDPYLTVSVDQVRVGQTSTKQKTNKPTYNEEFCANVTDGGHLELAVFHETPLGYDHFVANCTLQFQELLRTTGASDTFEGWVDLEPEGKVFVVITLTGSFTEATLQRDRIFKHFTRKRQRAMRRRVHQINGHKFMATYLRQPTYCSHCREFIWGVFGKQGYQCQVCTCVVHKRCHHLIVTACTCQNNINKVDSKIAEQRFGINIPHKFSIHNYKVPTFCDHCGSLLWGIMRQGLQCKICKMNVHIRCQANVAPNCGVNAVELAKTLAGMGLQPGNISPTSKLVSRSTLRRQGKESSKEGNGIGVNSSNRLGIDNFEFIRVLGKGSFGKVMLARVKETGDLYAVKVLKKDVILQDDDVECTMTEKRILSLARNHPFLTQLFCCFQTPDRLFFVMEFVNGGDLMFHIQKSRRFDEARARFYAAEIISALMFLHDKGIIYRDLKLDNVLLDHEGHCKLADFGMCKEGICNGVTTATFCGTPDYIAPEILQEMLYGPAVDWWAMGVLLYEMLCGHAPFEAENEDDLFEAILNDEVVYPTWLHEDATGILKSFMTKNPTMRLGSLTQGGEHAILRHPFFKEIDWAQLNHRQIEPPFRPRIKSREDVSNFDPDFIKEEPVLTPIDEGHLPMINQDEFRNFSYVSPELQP

Compound	Activity [1] [%]	Activity [2] [%]	Activity [3] [%]	Activity [10] [%]	Activity [11] [%]	Activity [12] [%]	other results
CC(=O)C1=C(O)C=C2Oc3c4c(cc(O)c3[C@]2(C)C1=O)OC(C)(C)NC4=O	56	102	78	102	92	35	Activity [4]: inactive; Activity [5]: inactive; Activity [6]: inactive; Activity [7]: inactive; Activity [8]: inactive; Activity [9]: inactive; Activity [13]: inactive
CC(=O)C1=C(O)CC2Oc3c(C(N)=O)c(O)cc(O)c3[C@]2(C)C1=O (stereo partly specified)	29	101	111				
CC1=NOC2C=C3Oc4c(C(N)=O)c(O)cc(O)c4[C@]3(C)C(=O)C12 (stereo partly specified)	1	102	126				
CC(=O)C1=C(O)C=C2Oc3c4c(cc(O)c3[C@]2(C)C1=O)OC(C)(c1ccccc1)NC4=O (stereo partly specified)				100	94	54	
COc1cc(OC)c2c(c1C(N)=O)OC1=CC(O)=C(C(C)=O)C(=O)[C@]12C	26	100	92				
COc1cc(OC)c2c(c1C(=O)N(C)C)OC1=CC(O)=C(C(C)=O)C(=O)[C@]12C	14	96	95				
CC(=O)C1=C(O)C=C2Oc3c(C(N)=O)c(O)cc(O)c3[C@]2(C)C1=O	71	83	34				IC50 [14]: 44 nM; IC50 [15]: 350 nM; IC50 [16]: 5800 nM; IC50 [17]: 1020 nM; Activity [18]: 571 mg/dL; Activity [19]: 48.4 g; Activity [20]: 5.78 g/day; Activity [21]: 408 mg/dL; Activity [22]: 47 g; Activity [23]: 4.81 g/day; Activity [24]: 272 mg/dL; Activity [25]: 45.9 g; Activity [26]: 3.65 g/day; Activity [27]: 176 mg/dL; Activity [28]: 39.1 g; Activity [29]: 1.89 g/day
CC(=O)C1=C(O)C=C2Oc3c4c(cc(O)c3[C@]2(C)C1=O)OC1(CCCCC1)NC4=O				104	104	38	
COc1cc(O)c2c(c1C(N)=O)OC1=CC(O)=C(C(C)=O)C(=O)[C@]12C	70	83	37				
CC(=O)C1=C(O)C=C2Oc3c4c(cc(O)c3[C@]2(C)C1=O)OC1(CCCC1)NC4=O				102	106	7	

From ChEMBL document CHEMBL1143288, “(-)-Cercosporamide derivatives as novel antihyperglycemic agents” (Bioorg Med Chem Lett, 2009)
